{"source": "patent US20230140972A1", "about": "“GLYCEROL GLUCOSIDE-BASED COMPOUND AND COMPOSITION COMPRISING SAME FOR ULTRAVIOLET LIGHT SHIELD OR ANTI-INFLAMMATION” (ATHENA CO., LTD., priority 2020, published 2023)", "key": {"[1]": {"test_system": "PGE2 production in RAW264.7 cells", "assay": "PGE2 production inhibition using ELISA assay", "format": "cell-based, mouse", "conditions": "LPS 10 ng/mL, 24 h", "protocol": "A PGE2 production inhibition ability of the sample in RAW264.7 cells was evaluated using a PGE2 ELISA assay.\nSpecifically, subcultured RAW264.7 cells were aliquoted into a 6-well dish at 1.5×10^6 cells/well and cultured for 24 hours at 37° C. in an incubator containing 5% carbon dioxide, and then a culture media was replaced with a serum-free media. Then, each sample was diluted by concentration and treated onto the cells with LPS (final 10 ng/mL). After culturing for 24 hours, the cell culture medium was recovered and a PGE2 ELISA assay was performed.\n100 μL of each of a standard solution and a cell culture solution were put into each well, and then 50 μL of PGE2 conjugate and 50 μL of PGE2 antibody were sequentially added and reacted at room temperature for 2 hours. Then, the reaction solution was removed from each well, washing is performed with a wash buffer, 200 μL of a substrate solution was then added, and reacted at room temperature for 45 minutes. Then, 50 μL of a stop solution was added and an absorbance was measured at 405 and 570 nm. Dexamethasone was used as a positive control group. After the test was conducted once, an amount of PGE2 production was calculated by substituting the absorbance value into a PGE2 standard solution calibration curve, and the PGE2 production inhibition rate (%) was calculated using Equation 5 below and expressed as the mean±standard deviation."}, "[2]": {"test_system": "total NO production in LPS-treated RAW264.7 cells", "assay": "Nitric oxide (total NO) production and inhibition, enzymatic method", "format": "cell-based, mouse", "conditions": "LPS 1 μg/mL; for Total NO production: 24 h", "protocol": "An NO assay was performed to evaluate an amount of nitric oxide (total NO) production and a production inhibition rate of the glycerol glucoside-based compound sample (EPS-S).\nSpecifically, subcultured RAW264.7 cells were aliquoted into a 96-well plate at 1×10^5 cells/well, and cultured at 37° C. in an incubator containing 5% carbon dioxide for 24 hours, and then a culture media was replaced with a serum-free media. Then, each sample is diluted by concentration and treated onto the cells with LPS (final 1 μg/mL). After culturing for 24 hours, a cell culture medium was treated with nitrate reductase, enzyme cofactor and enhancer to react. A Griess reagent was added and an absorbance was measured at 540 nm with a microplate reader. A total NO production was obtained by substituting the absorbance into a standard nitric oxide calibration curve, and a total NO production inhibition rate (%) was analyzed through Equation 2 and expressed as a mean±standard deviation. Dexamethasone was used as a positive control group."}, "[3]": {"test_system": "NO2 production in LPS-treated RAW264.7 cells", "assay": "Nitric oxide (NO2) production amount and inhibition, non-enzymatic method", "format": "cell-based, mouse", "conditions": "LPS 1 μg/mL, 24 h", "protocol": "An NO assay was performed to evaluate an amount of nitric oxide (NO2) production and a production inhibition ability of the glycerol glucoside-based compound sample (EPS-S).\nSpecifically, subcultured RAW264.7 cells were aliquoted into a 96-well plate at 1×10^5 cells/well, and cultured at 37° C. in an incubator containing 5% carbon dioxide for 24 hours, and then a culture media was replaced with a serum-free media. […] Dexamethasone was used as a positive control group."}, "[4]": {"test_system": "NO production in LPS-treated RAW264.7 cells", "assay": "Nitric oxide (NO) production inhibition, non-enzymatic method (Griess)", "format": "cell-based", "conditions": "Mus musculus, LPS 1 μg/mL, 24 h, read-out: NO production inhibition rate", "protocol": "An NO assay was performed to evaluate the nitric oxide (NO) production inhibition ability of the glycerol glucoside-based compound sample (EPS-S).\nSpecifically, subcultured RAW264.7 cells were aliquoted in a 96-well plate at 1×10^5 cells/well, and cultured for 24 hours at 37° C. in an incubator containing 5% carbon dioxide, and then, a culture media was replaced with a serum-free media. Then, each sample was diluted by concentration, treated onto the cell with LPS (final 1 μg/mL), and after culturing for 24 hours, the cell culture medium and a Griess reagent were reacted, and an absorbance was then measured at 540 nm with a microplate reader. Dexamethasone was used as a positive control group. After the test was conducted once, each absorbance value was substituted into Equation 2 below to obtain the NO production inhibition rate (%), and it was expressed as the mean±standard deviation."}, "[5]": {"test_system": "COX-2 mRNA in RAW264.7 cells", "assay": "COX-2 mRNA expression analysis (RT-qPCR)", "format": "cell-based, mouse", "conditions": "LPS 100 ng/mL, 24 h", "protocol": "An RT-qPCR was performed to evaluate an mRNA expression inhibition ability of COX-2 and iNOS of the glycerol glucoside-based compound sample (EPS-S).\nSpecifically, subcultured RAW264.7 cells were aliquoted into a 60 mm dish at 1.5×10^6 cells, and cultured at 37° C. in an incubator containing 5% carbon dioxide for 24 hours, and then a culture media was replaced with a serum-free media. Then, each sample was diluted by concentration and treated onto the cells with LPS (final 100 ng/mL). After culturing for 24 hours, cells were recovered, RNA was extracted, and cDNA was synthesized. For cDNA, qPCR was performed after mixing Real-time PCR Master Mix with TaqMan probes of each of COX-2 and iNOS. Dexamethasone was used as a positive control group. The test was conducted once, and the mRNA expression inhibition rate was obtained by analyzing the result by the ΔΔCt method, and then substituted into Equation 6 below to obtain the mRNA expression inhibition rate of COX-2 and iNOS of the treated sample group compared to the negative control group."}}}
{"smiles": "C[C@@H]1C[C@H]2[C@@H]3CCC4=CC(=O)C=C[C@]4(C)[C@@]3(F)[C@@H](O)C[C@]2(C)[C@@]1(O)C(=O)CO", "note": "[Dexamethasone]", "values": [{"measurement": "PGE2 production inhibitory ability", "setting": "[1]; 10 Mm (10 μM)", "value": 83.55, "unit": "%"}, {"measurement": "inhibition at 1 µM", "setting": "[1]; Mus musculus, RAW264.7, 1 μM, read-out: PGE2 production inhibitory ability", "value": 62.3, "unit": "%"}, {"measurement": "inhibition at 5 µM", "setting": "[1]; Mus musculus, RAW264.7, 5 μM, read-out: PGE2 production inhibitory ability", "value": 81.4, "unit": "%"}, {"measurement": "inhibition at 20 µM", "setting": "[1]; Mus musculus, RAW264.7, 20 μM, read-out: PGE2 production inhibitory ability", "value": 86.4, "unit": "%"}, {"measurement": "inhibition at 80 µM", "setting": "[1]; Mus musculus, RAW264.7, 80 μM, read-out: PGE2 production inhibitory ability", "value": 96.4, "unit": "%"}, {"measurement": "Total NO production", "setting": "[2]; 10 μM", "value": "41.15 ± 0.43", "unit": "µM"}, {"measurement": "Total NO production", "setting": "[2]; 10 μM, listed as dexamethasone", "value": 41.15, "unit": "µM"}, {"measurement": "Total NO production", "setting": "[2]; 20 μM", "value": "38.84 ± 1.24", "unit": "µM"}, {"measurement": "Total NO production", "setting": "[2]; 20 μM, listed as dexamethasone", "value": 38.84, "unit": "µM"}, {"measurement": "Total NO production", "setting": "[2]; 80 μM", "value": "37.82 ± 0.75", "unit": "µM"}, {"measurement": "Total NO production", "setting": "[2]; 80 μM, listed as dexamethasone", "value": 37.82, "unit": "µM"}, {"measurement": "inhibition at 10 µM", "setting": "[2]; Mus musculus, RAW264.7, 24 h, 10 μM, read-out: Total NO production inhibition rate", "value": 42.8, "unit": "%"}, {"measurement": "inhibition at 20 µM", "setting": "[2]; Mus musculus, RAW264.7, 24 h, 20 μM, read-out: Total NO production inhibition rate", "value": 48.7, "unit": "%"}, {"measurement": "inhibition at 80 µM", "setting": "[2]; Mus musculus, RAW264.7, 24 h, 80 μM, read-out: Total NO production inhibition rate", "value": 51.4, "unit": "%"}, {"measurement": "NO2 production amount", "setting": "[3]; 10 μM", "value": "21.29 ± 0.59", "unit": "µM"}, {"measurement": "NO2 production amount", "setting": "[3]; 10 μM, listed as dexamethasone", "value": 21.29, "unit": "µM"}, {"measurement": "NO2 production amount", "setting": "[3]; 20 μM", "value": "20.79 ± 0.12", "unit": "µM"}, {"measurement": "NO2 production amount", "setting": "[3]; 20 μM, listed as dexamethasone", "value": 20.79, "unit": "µM"}, {"measurement": "NO2 production amount", "setting": "[3]; 80 μM", "value": "19.62 ± 0.50", "unit": "µM"}, {"measurement": "NO2 production amount", "setting": "[3]; 80 μM, listed as dexamethasone", "value": 19.62, "unit": "µM"}, {"measurement": "inhibition at 10 µM", "setting": "[3]; Mus musculus, RAW264.7, 10 μM, read-out: NO2 production inhibition rate", "value": 21.5, "unit": "%"}, {"measurement": "inhibition at 20 µM", "setting": "[3]; Mus musculus, RAW264.7, 20 μM, read-out: NO2 production inhibition rate", "value": 24.7, "unit": "%"}, {"measurement": "inhibition at 80 µM", "setting": "[3]; Mus musculus, RAW264.7, 80 μM, read-out: NO2 production inhibition rate", "value": 32.3, "unit": "%"}, {"measurement": "inhibition at 10 µM", "setting": "[4]; 10 μM", "value": 15.6, "unit": "%"}, {"measurement": "inhibition at 20 µM", "setting": "[4]; 20 μM", "value": 18, "unit": "%"}, {"measurement": "inhibition at 40 µM", "setting": "[4]; 40 μM", "value": 27.6, "unit": "%"}, {"measurement": "inhibition at 80 µM", "setting": "[4]; 80 μM", "value": 33.8, "unit": "%"}, {"measurement": "COX-2 mRNA expression inhibition rate", "setting": "[5]; 1 μM", "value": "22.64 ± 1.27", "unit": "%"}, {"measurement": "COX-2 mRNA expression inhibition rate", "setting": "[5]; 1 μM, listed as dexamethasone", "value": 22.64, "unit": "%"}, {"measurement": "COX-2 mRNA expression inhibition rate", "setting": "[5]; 5 μM", "value": "71.72 ± 0.69", "unit": "%"}, {"measurement": "COX-2 mRNA expression inhibition rate", "setting": "[5]; 5 μM, listed as dexamethasone", "value": 71.72, "unit": "%"}, {"measurement": "COX-2 mRNA expression inhibition rate", "setting": "[5]; 20 μM", "value": "81.78 ± 0.60", "unit": "%"}, {"measurement": "COX-2 mRNA expression inhibition rate", "setting": "[5]; 20 μM, listed as dexamethasone", "value": 81.78, "unit": "%"}, {"measurement": "COX-2 mRNA expression inhibition rate", "setting": "[5]; 80 μM", "value": "84.23 ± 0.41", "unit": "%"}, {"measurement": "COX-2 mRNA expression inhibition rate", "setting": "[5]; 80 μM, listed as dexamethasone", "value": 84.23, "unit": "%"}, {"measurement": "COX-2 mRNA expression inhibition rate", "setting": "[5]; 10 Mm (table head; text 10 μM)", "value": "76.82 ± 1.73", "unit": "%"}, {"measurement": "COX-2 mRNA expression inhibition rate", "setting": "[5]; 10 Mm (table head; text 10 μM), listed as dexamethasone", "value": 76.82, "unit": "%"}]}
